Assay results: patent US20250152585A1, “PHARMACEUTICAL COMPOUND” (Duke Street Bio Limited, priority 2022, published 2025)
Read-outs that look alike come from different tables or passages of the source.

How the values were obtained:
[1] = biological target: T1, full length N-terminally FLAG-tagged PARP1 (Homo sapiens, UniProt P09874); assay: PARP1 biochemical DELFIA assay (auto-PARylation); design: recombinant full length human N-terminally FLAG-tagged PARP1
[2] = biological target: T1, full length N-terminally FLAG-tagged PARP1; assay: PARP1 probe displacement HTRF assay; details: for Selectivity: PARP1 over PARP2, ratio Kd (PARP2)/Kd (PARP1); for Kd: read-out: PARP1 HTRF, binned Kd
[3] = biological target: T2, N-terminally FLAG-tagged PARP2 (amino acids 1-583) (Homo sapiens, UniProt Q9UGN5); assay: PARP2 probe displacement HTRF assay; format: binding; details: binned Kd
T2 construct: N-terminally FLAG-tagged PARP2 (amino acids 1-583)
T2 sequence (Q9UGN5 whole entry, the tested form may be a part): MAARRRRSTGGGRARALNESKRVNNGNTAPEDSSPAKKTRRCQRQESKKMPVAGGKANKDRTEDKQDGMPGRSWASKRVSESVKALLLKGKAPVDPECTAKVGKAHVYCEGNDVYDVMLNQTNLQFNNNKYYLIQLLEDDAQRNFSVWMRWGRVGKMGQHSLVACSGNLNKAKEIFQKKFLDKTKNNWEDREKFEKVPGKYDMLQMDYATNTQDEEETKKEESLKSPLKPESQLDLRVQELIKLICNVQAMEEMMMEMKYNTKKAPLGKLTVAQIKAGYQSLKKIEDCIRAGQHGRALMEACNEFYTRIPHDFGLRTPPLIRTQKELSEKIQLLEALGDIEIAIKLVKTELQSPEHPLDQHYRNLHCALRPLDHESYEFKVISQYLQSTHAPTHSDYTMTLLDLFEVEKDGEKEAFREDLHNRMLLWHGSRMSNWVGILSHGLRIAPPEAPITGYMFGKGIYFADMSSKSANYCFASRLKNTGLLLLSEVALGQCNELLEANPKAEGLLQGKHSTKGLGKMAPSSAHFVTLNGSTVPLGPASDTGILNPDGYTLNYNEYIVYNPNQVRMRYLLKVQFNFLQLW
Method: Data analysis was performed identical as for PARP1.

[4] = binned IC50, PARP1 biochemical DELFIA assay
[5] = binned IC50, biochemical auto-PARylation assay

T1 sequence (P09874 whole entry): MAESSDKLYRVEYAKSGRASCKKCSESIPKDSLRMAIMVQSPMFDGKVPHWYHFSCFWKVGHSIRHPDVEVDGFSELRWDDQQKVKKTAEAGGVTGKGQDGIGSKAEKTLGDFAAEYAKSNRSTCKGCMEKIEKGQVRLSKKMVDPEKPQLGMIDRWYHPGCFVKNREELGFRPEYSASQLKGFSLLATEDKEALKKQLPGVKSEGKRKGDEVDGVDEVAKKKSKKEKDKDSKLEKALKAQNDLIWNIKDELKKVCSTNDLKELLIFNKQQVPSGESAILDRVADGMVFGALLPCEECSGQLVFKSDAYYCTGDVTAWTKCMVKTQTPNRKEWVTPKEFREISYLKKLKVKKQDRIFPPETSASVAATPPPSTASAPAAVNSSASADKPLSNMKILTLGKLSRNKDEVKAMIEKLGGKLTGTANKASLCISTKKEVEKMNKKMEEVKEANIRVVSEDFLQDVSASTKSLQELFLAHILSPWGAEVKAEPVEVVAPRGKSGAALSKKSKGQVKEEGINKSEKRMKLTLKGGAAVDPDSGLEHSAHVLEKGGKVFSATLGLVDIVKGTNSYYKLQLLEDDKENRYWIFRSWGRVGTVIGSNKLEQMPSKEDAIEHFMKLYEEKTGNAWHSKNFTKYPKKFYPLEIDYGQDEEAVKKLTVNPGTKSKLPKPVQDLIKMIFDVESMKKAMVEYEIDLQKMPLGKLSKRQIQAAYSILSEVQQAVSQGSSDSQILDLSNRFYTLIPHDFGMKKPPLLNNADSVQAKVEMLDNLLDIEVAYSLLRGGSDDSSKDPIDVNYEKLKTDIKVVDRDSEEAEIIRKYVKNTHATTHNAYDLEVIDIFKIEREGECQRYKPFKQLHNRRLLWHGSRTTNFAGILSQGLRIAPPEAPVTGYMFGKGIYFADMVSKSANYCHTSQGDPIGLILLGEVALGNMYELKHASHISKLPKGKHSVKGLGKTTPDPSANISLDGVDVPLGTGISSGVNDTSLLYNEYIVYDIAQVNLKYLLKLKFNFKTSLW

SMILES	IC50 [1, 4] [nM]	Selectivity ([2]; probe displacement HTRF)	Kd ([2]; PARP1 probe displacement HTRF) [nM]	Kd ([3]; PARP2 probe displacement HTRF) [nM]	IC50 [1, 5] [nM]	Kd ([2]; probe displacement HTRF) [nM]	Kd ([3]; probe displacement HTRF) [nM]
CNC(=O)c1ccc(N2CCC(N3CCCC(c4nc5ccccc5c(=O)[nH]4)C3)CC2)c(C(F)F)n1 (racemic) [Compound 156rac]	10 to 100	++ (++ indicates a value of 50 to less than 100)	10 to 100	> 10000			
CCc1ccc(C2CCN(C3CCN(c4ccc(C(=O)NCCOC)nc4)CC3)C2)[nH]c1=O (racemic) [Compound 160rac]	< 10	+++ (+++ indicate a value of at least 100)	< 10	1000 to 10000			
CNC(=O)c1ccc(N2CCC(N3CCC(c4nc5c(C)cn(C)c5c(=O)[nH]4)C3)CC2)cn1 (racemic) [Compound 163rac]	< 10	+++ (+++ indicate a value of at least 100)	< 10	100 to 1000			
CCc1ccc(C2CCN(C3CCN(c4ccc(C(N)=O)nc4)CC3)C2)[nH]c1=O (racemic) [Compound 166rac]	< 10	+++ (+++ indicate a value of at least 100)	< 10	1000 to 10000			
CCNC(=O)c1ccc(N2CCC(N3CCC(c4ccc(CC)c(=O)[nH]4)C3)CC2)cn1 (racemic) [Compound 171rac]	< 10	+++ (+++ indicate a value of at least 100)	< 10	100 to 1000			
CNC(=O)c1ccc(N2CCC(N3CCCC(c4nc5onc(C(F)(F)F)c5c(=O)[nH]4)C3)CC2)cn1 (racemic) [Compound 191rac]	100 to 1000	+ (+ indicates a value of 10 to less than 50)	100 to 1000	> 10000			
CNC(=O)c1cc(C)c(N2CCC(N3CCC(c4cc5ccccc5c(=O)[nH]4)C3)CC2)cn1 (racemic) [Compound 195rac]	< 10	+++ (+++ indicate a value of at least 100)	< 10	100 to 1000			
CNC(=O)c1ccc(N2CCC(N3CCC(c4cc5nccc(N)c5c(=O)[nH]4)C3)CC2)cn1 (racemic) [Compound 200rac]	10 to 100	+++ (+++ indicate a value of at least 100)	10 to 100	> 10000			
CNC(=O)c1ccc(N2CCC(N3CCC(c4cc5cccnc5c(=O)[nH]4)C3)CC2)cn1 (racemic) [Compound 203rac]	< 10	+++ (+++ indicate a value of at least 100)	< 10	> 10000			
CNC(=O)c1ccc(N2CCC(N3CCC(c4cc5cnccc5c(=O)[nH]4)C3)CC2)cn1 (racemic) [Compound 204rac]	< 10	+++ (+++ indicate a value of at least 100)	< 10	> 10000			
CNC(=O)c1cc(C)c(N2CCC(N3CCC(c4cc5ccncc5c(=O)[nH]4)C3)CC2)c(C)n1 (racemic) [Compound 211rac]	< 10	+++ (+++ indicate a value of at least 100)	< 10	100 to 1000			
CNC(=O)c1ncc(N2CCC(N3CCC(c4cc5cccc(F)c5c(=O)[nH]4)C3)CC2)cn1 (racemic) [Compound 215rac]	10 to 100	− (− indicates a value of less than 10)	10 to 100	100 to 1000			
CNC(=O)c1ccc(N2CCC(N3CCC(c4nc5c(c(=O)[nH]4)NCCN5)C3)CC2)cn1 (racemic) [Compound 226rac]		++ (++ indicates a value of 50 to less than 100)			10 to 100	10 to 100	> 10000
O=C(NC1COC1)c1ccc(N2CCC(N3CCC(c4nc5ccccc5c(=O)[nH]4)C3)CC2)cn1 (racemic) [Compound 229rac]		+++ (+++ indicate a value of at least 100)			10 to 100	< 10	100 to 1000
CNC(=O)c1ccc(N2CCC(N3CCC(c4ccc(CCF)c(=O)[nH]4)C3)CC2)cn1 (racemic) [Compound 231rac]		+++ (+++ indicate a value of at least 100)			< 10	< 10	1000 to 10000
CNC(=O)c1ccc(N2CCC(N3CCC(c4cc5c(c(=O)[nH]4)CCCN5)C3)CC2)cn1 (racemic) [Compound 233rac]		+++ (+++ indicate a value of at least 100)			< 10	< 10	100 to 1000
CNC(=O)c1ncc(N2CCC(N3CCC(c4cc5cccc(F)c5c(=O)[nH]4)C3)CC2)cn1 (racemic) [Compound 234rac]		+++ (+++ indicate a value of at least 100)			< 10	< 10	100 to 1000
CNC(=O)c1cc(F)c(N2CCC(N3CCC(c4cc5ccc(F)cc5c(=O)[nH]4)C3)CC2)cn1 (racemic) [Compound 235rac]		+ (+ indicates a value of 10 to less than 50)			< 10	< 10	10 to 100

SMILES	IC50 [1, 4] [nM]	Selectivity ([2]; probe displacement HTRF)	Kd ([2]; PARP1 probe displacement HTRF) [nM]	Kd ([3]; PARP2 probe displacement HTRF) [nM]	IC50 [1, 5] [nM]	Kd ([2]; probe displacement HTRF) [nM]	Kd ([3]; probe displacement HTRF) [nM]
CNC(=O)c1ccc(N2CCC(N3CCC(c4[nH]c(=O)c5ccccc5c4C)C3)CC2)cn1 (racemic) [Compound 237rac]		++ (++ indicates a value of 50 to less than 100)			< 10	< 10	10 to 100
CNC(=O)c1ncc(N2CCC(N3CCC(c4cc5cccc(F)c5c(=O)[nH]4)C3)CC2)c(C)n1 (racemic) [Compound 241rac]		+++ (+++ indicate a value of at least 100)			< 10	< 10	100 to 1000
CCc1ccc(C2CCN(C3CCN(c4cnc(C(=O)NC)nc4Cl)CC3)C2)[nH]c1=O (racemic) [Compound 242rac]		++ (++ indicates a value of 50 to less than 100)			< 10	< 10	100 to 1000
CNC(=O)c1ccc(N2CCC(N3CCC(c4ccc(CC(F)(F)F)c(=O)[nH]4)C3)CC2)cn1 (racemic) [Compound 243rac]		++ (++ indicates a value of 50 to less than 100)			10 to 100	10 to 100	> 10000
CNC(=O)c1ccc(N2CCC(N3CCC(c4cc5c(c(C(F)(F)F)nn5C)c(=O)[nH]4)C3)CC2)cn1 (racemic) [Compound 244rac]		− (− indicates a value of less than 10)			< 10	< 10	< 10
CNC(=O)c1cc(Cl)c(N2CCC(N3CCC(c4cc5cccc(F)c5c(=O)[nH]4)C3)CC2)cn1 (racemic) [Compound 248rac]		+++ (+++ indicate a value of at least 100)			< 10	< 10	100 to 1000
CNC(=O)c1cnc(N2CCC(N3CCC(c4cc5ccccc5c(=O)[nH]4)C3)CC2)s1 (racemic) [Compound 253rac]		+ (+ indicates a value of 10 to less than 50)			10 to 100	10 to 100	> 10000
O=c1[nH]c(C2CCN(C3CCN(c4nccs4)CC3)C2)cc2ccccc12 (racemic) [Compound 254rac]		+ (+ indicates a value of 10 to less than 50)			10 to 100	100 to 1000	1000 to 10000
CCc1ccc(C2CCN(C3CCN(c4cnc(C(=O)NC)cc4F)CC3)C2)[nH]c1=O (racemic) [Compound 257rac]		+++ (+++ indicate a value of at least 100)			< 10	< 10	1000 to 10000
O=c1[nH]c(C2CCN(C3CCN(c4ccc(-c5nnn[nH]5)nc4)CC3)C2)nc2ccccc12 (racemic) [Compound 263rac]		− (− indicates a value of less than 10)			10 to 100	100 to 1000	100 to 1000
CCNC(=O)c1ccc(N2CCC(N3CCC(c4ccc(CC)c(=O)[nH]4)C3)CC2)c(F)n1 (racemic) [Compound 264rac]		+++ (+++ indicate a value of at least 100)			< 10	< 10	100 to 1000
CNC(=O)c1ccc(N2CCC(N3CCC(c4cc5c(F)ccc(F)c5c(=O)[nH]4)C3)CC2)c(F)n1 (racemic) [Compound 268rac]		+++ (+++ indicate a value of at least 100)			< 10	< 10	100 to 1000
CNC(=O)c1ccc(N2CCC(N3CCC(c4cc5cccc(O)c5c(=O)[nH]4)C3)CC2)cn1 (racemic) [Compound 271rac]		+++ (+++ indicate a value of at least 100)			< 10	< 10	100 to 1000
Cc1n[nH]c(-c2ccc(N3CCC(N4CCC(c5nc6ccccc6c(=O)[nH]5)C4)CC3)cn2)n1 (racemic) [Compound 275rac]		+ (+ indicates a value of 10 to less than 50)			< 10	< 10	100 to 1000
CCc1ccc(C2CCN(C3CCN(c4cnc(C(=O)NC)nc4C(F)(F)F)CC3)C2)[nH]c1=O (racemic) [Compound 278rac]		+++ (+++ indicate a value of at least 100)			10 to 100	10 to 100	> 10000
CCc1ccc(C2CCN(C3CCN(c4ccc(C(=O)NC)c(F)c4)CC3)C2)[nH]c1=O (racemic) [Compound 282rac]		+ (+ indicates a value of 10 to less than 50)			10 to 100	10 to 100	100 to 1000
CNC(=O)c1ccc(N2CCC(N3CCC(c4ccc(CCO)c(=O)[nH]4)C3)CC2)cn1 (racemic) [Compound 286rac]		+++ (+++ indicate a value of at least 100)			10 to 100	10 to 100	> 10000
